Legend:
Type in all cases: in vivo, mouse
[1] = system: aged WT mice; assay: Systolic blood pressure, body weight and cardiac hypertrophy in aged WT mice after chronic IRAP inhibition
Experimental: (§1) There are 8 different sets of in vivo experiments in this study: • A) Phenotypic characterisation of the heart and blood vessels in global IRAP knockout mice and their WT controls treated for 4 weeks with Angiotensin (Ang) II (800 ng/kg/min; s.c.) where mouse hearts and blood vessels were compared to tissue obtained from young WT and IRAP^−/− mice treated with saline. • B) Prevention of Ang II-induced changes in the cardiovascular system following IRAP inhibitor treatment. In the prevention model, WT mice were treated with Ang II (800 ng/kg/min; s.c.)±the IRAP inhibitor (HFI-419; 500 ng/kg/min for 28 days) or HFI-vehicle (1 DMSO:3 HBC). • C) Phenotypic characterisation of the aged heart, kidney and blood vessels in the global IRAP knockout mice where aged WT and IRAP^−/− mouse hearts, kidneys and blood vessels were compared to tissue obtained from young WT and IRAP^−/− mice. • D) Reversal of the age-induced changes in the cardiovascular system following IRAP inhibitor treatment. In the reversal model, aged WT mice were treated with either saline, IRAP inhibitor (HFI-419 at 500 ng/kg/min; compound 1 at 500 ng/kg/min; compound 2 at 50 ng/kg/min) or HFI-vehicle (1 DMSO: 3 HBC) for 4 weeks. • E) Prevention of ischemic-reperfusion injury in isolated hearts taken from aged global IRAP knockout mice and aged IRAP inhibitor (HFI-419 at 500 ng/kg/min; s.c.) treated WT mice compared to age-matched vehicle-treated (1 DMSO:3 HBC; s.c.) WT controls. • F) Phenotypic characterization of cardiac function using echocardiography in the aged global IRAP knockout mice compared to aged and young WT mice. • G) Phenotypic characterization of liver steatosis in IRAP knockout mice in a high fat diet (HFD) model. • H) Reversal of the salt-induced fibrosis in the liver following IRAP inhibitor treatment.
All mice which underwent surgery were anaesthetized with Isoflurane (Isorrane) (5% induction and 2.5% maintenance) and an incision made in the midscapular region through which osmotic minipumps (Alzet model 2004, Alza Corp) were inserted for subcutaneous drug administration. The incision area was sutured with 6/0 DY silk (Dynek Pty Ltd) and antibiotic powder applied (Cicatrin, Pfizer) followed by intramuscular injection of the analgesic Cartrophen (0.1 ml of a 1.5 mg/ml stock solution; Biopharm Australia). Systolic blood pressure (SBP) was measured fortnightly using non-invasive tail-cuff plethysmography apparatus (MC4000 Blood Pressure Analysis System, Hatteras Instrument Inc) before drug treatment (week 0), at week 2 of treatment and end of treatment (week 4). At the end of drug treatment, body weight of mice was recorded. Mice were anaesthetized using Isoflurane inhalation and killed by cervical dislocation. Organs (heart, aorta, kidneys, brain, blood and tibia) were collected, with heart and aorta being dissected appropriately as described below. All organs were then snap frozen in liquid nitrogen, and stored at −80° C. if they were not used for vascular reactivity studies conducted on the day mice were killed.
Ventricular weight (VW) was compared to the body weight (BW) as a ratio of VW:BW (mg/g), as well as comparison of VW to tibial length (TL) in as a ratio of VW:TL (mg/mm) respectively. […] The average of 100 cardiomyocytes per heart section was performed under 60× magnification and analyzed using Image J.

[2] = system: transverse heart sections from Ang II-infused WT mice; assay: Angiotensin II infusion prevention model: cardiac hypertrophy, fibrosis, ROS and inflammatory markers; conditions: Ang II + HFI-419, 4 weeks
Experimental: as §1
To measure collagen deposition, frozen sections of heart, kidney or aorta (all 5 μm thickness) were air dried for 10 minutes and were brought through 3 times xylene (2 minutes each), and 3 times absolute alcohol washes before being rinsed in tap H2O for 30 seconds. Staining with an optimal concentration of picrosirius red (in this instance 0.05% picrosirius red diluted in saturated picric acid) was performed and left for an hour. Sections were then rinsed in water and differentiated in 0.01 M HCl for 2 minutes, followed by dehydration via 3 times absolute alcohol washes. Then, slides were brought through 3 times xylene washes before being cover slipped according to standard histological techniques using DPX as the mounting medium. Images were taken under ×20 magnification, using bright field (Olympus, BX51) and circularized polarized light microscopy (DM IRB, Leica) while percentage of positive interstitial collagen staining per total field of view was quantified using ImageJ 1.46 software (Java, NIH), and averaged out from a total of eight views as the final percentage collagen content in a particular animal.
Ventricular weight (VW) was compared to the body weight (BW) as a ratio of VW:BW (mg/g), as well as comparison of VW to tibial length (TL) in as a ratio of VW:TL (mg/mm) respectively. The hearts that were embedded in OCT and frozen were transversely sectioned in a cryostat at 5 μm thickness, and stained with Hematoxylin and Eosin (Amber Scientific) for morphological examination of cell structure. The average of 100 cardiomyocytes per heart section was performed under 60× magnification and analyzed using Image J.
Immunostaining was performed on either 5 μm thick transverse frozen heart sections or 5 μm thick frozen thoracic aortic. These sections were air dried and fixed in ice-cold acetone for approximately 15 minutes before washing with 0.01M PBS buffer (3×10 minutes). Sections were then incubated with 10% goat serum in 0.01M PBS for 30 minutes to reduce non-specific binding. […]

[3] = system: kidneys of aged (18-22 month old) WT mice; assay: Reversal of age-induced kidney fibrosis in aged WT mice
Experimental: There are 8 different sets of in vivo experiments in this study: • A) Phenotypic characterisation of the heart and blood vessels in global IRAP knockout mice and their WT controls treated for 4 weeks with Angiotensin (Ang) II (800 ng/kg/min; s.c.) where mouse hearts and blood vessels were compared to tissue obtained from young WT and IRAP^−/− mice treated with saline. • B) Prevention of Ang II-induced changes in the cardiovascular system following IRAP inhibitor treatment. In the prevention model, WT mice were treated with Ang II (800 ng/kg/min; s.c.)±the IRAP inhibitor (HFI-419; 500 ng/kg/min for 28 days) or HFI-vehicle (1 DMSO:3 HBC). • C) Phenotypic characterisation of the aged heart, kidney and blood vessels in the global IRAP knockout mice where aged WT and IRAP^−/− mouse hearts, kidneys and blood vessels were compared to tissue obtained from young WT and IRAP^−/− mice. • D) Reversal of the age-induced changes in the cardiovascular system following IRAP inhibitor treatment. […]
To measure collagen deposition, frozen sections of heart, kidney or aorta (all 5 μm thickness) were air dried for 10 minutes and were brought through 3 times xylene (2 minutes each), and 3 times absolute alcohol washes before being rinsed in tap H2O for 30 seconds. […] Images were taken under ×20 magnification, using bright field (Olympus, BX51) and circularized polarized light microscopy (DM IRB, Leica) while percentage of positive interstitial collagen staining per total field of view was quantified using ImageJ 1.46 software (Java, NIH), and averaged out from a total of eight views as the final percentage collagen content in a particular animal. […]

CCOC(=O)C1=C(NC(C)=O)Oc2cc(O)ccc2C1c1cccnc1 (centres unmarked) [HFI-419]
systolic blood pressure, SBP ([1]; chronic (4 week) HFI-419, FIG. 16a): no significant effect | body weight ([1]; chronic (4 week) HFI-419, FIG. 16b): no significant effect | ventricular weight to body weight ratio, VW:BW ([1]; chronic (4 week) HFI-419, FIG. 16c): no significant effect | cardiomyocyte cross-sectional area (H&E) ([1]; chronic (4 week) HFI-419, FIG. 16e): no effect | ventricular weight to tibial length ratio, VW:TL ([1]; chronic (4 week) HFI-419, FIG. 16d): no significant effect | Ang II-mediated increase in cardiac hypertrophy (cardiomyocyte cross-sectional area, H&E) ([2]; FIG. 5a): prevented | interstitial collagen expression in heart (picrosirius red, brightfield) ([2]; FIG. 5b): significantly decreased | protein expression of TGF-β1 in heart (western blot) ([2]; FIG. 6): decreased | vimentin staining in heart (marker for fibroblast expression) ([2]; FIG. 6): no change | α-SMA staining in heart (marker for myofibroblast expression) ([2]; FIG. 6): decreased | Ang II-induced increase in cardiac superoxide generation (DHE) ([2]; FIG. 7): prevented | ICAM-1 expression and protein content in heart ([2]; FIG. 7): decreased | MCP-1 expression in heart ([2]; FIG. 7): decreasing | P-IκBα expression in heart ([2]; FIG. 7): decreased | expression of NOX-2 in heart ([2]; FIG. 7): no effect | macrophage (F4/80) expression in heart ([2]; FIG. 7): decreasing | perivascular expression of TGF-β1 in heart ([2]; immunofluorescence, FIG. 6): decreased | IRAP expression in kidneys ([3]; aged WT mice, HFI-419 500 ng/kg/min s.c., 4 weeks, FIG. 22b): tended to be decreased | αSMA-positive myofibroblast expression in kidneys ([3]; aged WT mice, HFI-419 4 weeks vs vehicle, FIG. 24b): trend towards reduced | age-induced collagen deposition in kidney (interstitial fibrosis, picrosirius red) ([3]; ~20 month old WT mice, HFI-419 500 ng/kg/min s.c., 4 weeks, FIG. 23): completely reverse

— patent US11834663B2, “Fibrotic treatment” (Monash University, priority 2015, dated 2023)
